Non-standard residues stand in square brackets, D forms with d. Residues, ends and D or L forms follow the SMILES beside them. pGlu = O=C1CC[C@@H](C(=O)O)N1; Nva = CCC[C@H](N)C(=O)O
Key:
[1] = system: mAb 1H11; assay: OSTEOMARK competitive immunoassay testing apparent affinity of synthetic peptides for mAb 1H11; format: binding; details: for Results: peptide binding to mAb 1H11, 1 μg synthetic peptide = X nmole BCE: nanomoles Bone Collagen Equivalents equivalent to 1 μg peptide, back fit into OSTEOMARK standard curve, values between 0.5 and 1 OD averaged; for binding to mAb 1H11 (in words): synthetic peptide, antibody inhibition assay
Description: Generally, a milligram per mL solution of the peptide was made in PBS. The absorbence at A280 was read and the concentration confirmed. Dilutions of the peptide were then made in a buffer such as OSTEOMARK (TM) calibrator diluent (OSTEOMARK Assay, Ostex International, Seattle, Wash.). Working strength concentrations were between 10 and 0.01 micrograms per milliliter.
To test the apparent affinity of the synthetic peptides for mAb 1H11, the OSTEOMARK assay was run using OSTEOMARK kits and components, including monoclonal antibody 1H11. A standard curve was run using OSTEOMARK calibrators. Peptide samples were generally tested at 10, 3, 1, and down to 0.01 μG per mL. The standard OSTEOMARK curve was generated using a four parameter logistic curve fit program (MedData Inc., N.Y., N.Y.). Peptide values were back fit into the standard curve and values were reported in picomoles Bone Collagen Equivalents (BCE)/mL (which equals nanomolar BCE, or nM BCE).
Values in the Table are reported as the number of nanomoles of BCE equivalent to a microgram of a given peptide. Antibody binding values below 500 nMole BCE were considered to be commercially insignificant.

[2] = system: mAb 1H11; details: linear peptides in which K is simply lysine; WO 91/08478; Hanson et al. 1992; cited from earlier work

| Molecule | Results: peptide binding to mAb 1H11, 1 μg synthetic peptide = X nmole BCE [1] | binding to mAb 1H11 (in words) [1] | recognition by mAb 1H11 (in words) [2] |
| --- | --- | --- | --- |
| CC(C)[C@H](NC(=O)CNC(=O)[C@H](CCCCN)NC(=O)CNC(=O)[C@H](CC(=O)O)NC(=O)[C@H](Cc1ccc(O)cc1)NC(=O)[C@@H]1CCC(=O)N1)C(=O)NCC(=O)O [SEQ ID NO:9, J Y D G K G V G] ([pGlu]YDGKGVG-OH) | 100 nmole BCE | very weak binding partner | recognized very weakly |
| CC(C)[C@H](NC(=O)CNC(=O)[C@H](CCC(=O)O)NC(=O)CNC(=O)[C@H](CC(=O)O)NC(=O)[C@H](Cc1ccccc1)NC(=O)[C@@H]1CCC(=O)N1)C(=O)NCC(=O)O [SEQ ID NO:36, J F D G E G V G] ([pGlu]FDGEGVG-OH) | 14 nmole BCE | blocks mAb 1H11 binding |  |
| CC(C)[C@H](NC(=O)CNC(=O)[C@H](CCC(=O)O)NC(=O)[C@@H](NC(=O)[C@H](CC(=O)O)NC(=O)[C@H](Cc1ccc(O)cc1)NC(=O)[C@@H]1CCC(=O)N1)C(C)C)C(=O)NCC(=O)O [SEQ ID NO:37, J Y D V E G V G] ([pGlu]YDVEGVG-OH) | 6 nmole BCE | substantially eliminates mAb 1H11 binding affinity |  |
| CCC[C@H](NC(=O)CNC(=O)[C@H](CC(=O)O)NC(=O)[C@H](Cc1ccc(O)cc1)NC(=O)[C@@H]1CCC(=O)N1)C(=O)NCC(=O)N[C@H](C(=O)NCC(=O)O)C(C)C [SEQ ID NO:38, J Y D G X^5 G V G] ([pGlu]YDG[Nva]GVG-OH) | 860 nmole BCE |  |  |
| CC(C)[C@H](NC(=O)CNC(=O)[C@H](CCC(=O)O)NC(=O)CNC(=O)[C@H](CC(=O)O)NC(=O)[C@H](Cc1ccc(O)cc1)NC(=O)[C@@H]1CCC(=O)N1)C(=O)NCC(N)=O [SEQ ID NO:44, J Y D G E G V X^6] ([pGlu]YDGEGVG-NH2) | < 50 nmole BCE | prevented recognition |  |
| J Y D G C G V G [SEQ ID NO:2] | 2500 nmole BCE | excellent binding to mAb 1H11 |  |
| J Y D G E G V G L [SEQ ID NO:40, b13: -Lys added to the C-terminus] | < 50 nmole BCE | prevents mAb 1H11 binding |  |
| J Y D G E G V G [SEQ ID NO:29] | < 50 nmole BCE | eliminate the requisite binding of mAb 1H11 |  |
